Reference: US6517812B1, “Inhibition of psychostimulant-induced and nicotine-induced craving” (The General Hospital Corporation, priority 1997, dated 2003)

Columns and labels:
Assay type in all cases: in vivo
rat brain regions = test: CBV-weighted fMRI with MION contrast in rat after IV cocaine
[1] = system: cocaine-dependent volunteers; test: Physiological monitoring (HR, MBP, ETCO2, ECG) after double-blind IV cocaine infusion; settings: human
Method: Subjects were admitted to the MGH GCRC for the screening procedures; those meeting all criteria were boarded overnight on the unit in preparation for imaging the following day. The following morning the subject had bilateral intravenous catheters placed (right forearm for cocaine or saline infusion, left forearm for serial venous blood sampling for quantitative cocaine levels). Scanning was performed between 11AM and 3PM during which the subject was in the scanner for two periods of time each lasting from 45 to 90 minutes. During each scanning period, one infusion was given, either cocaine (0.6 mg/kg, maximum dose 40 mg) or saline (both in a volume of 10 cc given over 30 seconds IV) in a randomized, double blind order. Five different scans were performed during each period. The infusion itself was made 5 minutes into an 18 minute long blood oxygen level dependent (BOLD) scan. The BOLD infusion scan was bracketed by flow-sensitive alternating inversion recovery (FAIR) and visual stimulation BOLD scans (the data from these scans were used to delineate the global vs. regional signal changes from cocaine). The time interval between functional scans within a period was kept to a minimum. The entire sequence of 5 functional scans was completed within 45-60 minutes. The subject was removed from the scanner for a 15-30 minute rest and then was returned to magnet and the sequence was repeated for the second infusion. A minimum of two hours had to pass between each double-blind infusion.
Physiologic monitoring was conducted using an In Vivo OmniTrak 3100 patient monitoring system (Orlando, Fla.) modified to permit on-line computer acquisition of physiologic measurements. Each subject was fitted with chest leads to record the electrocardiogram (ECG) and to measure heart rate (HR), a nasal cannula to measure respiratory rate and end-expiratory carbon dioxide (ETCO2), and a blood pressure cuff to measure non-invasively systemic mean blood pressure (MBP). The temporal resolution of the system for sampling blood pressure was once every two minutes.
Precautions taken to ensure safe conduct of the study included use of ACLS trained personnel, frequent running of mock codes with clocked performance of tasks and strict definition of individual tasks, and presence of a cardiologist at the time of all infusions whose sole responsibility was to monitor subject safety. Before and after completion of both infusions, subjects underwent a 12-lead ECG to determine the absence of any interval change from the experiments. Because of magnetohydrodynamic effects on the ECG tracing, a baseline rhythm strip was obtained prior to each drug infusion and all subsequent tracings were compared to that one.
Physiological Data: The data analysis and graphing program IGOR (WaveMetrics, Inc.) was used to analyze the data. Data were first analyzed by a 2 way ANOVA with drug treatment (saline, cocaine) and time of measurement as factors. When significant F values were obtained for one of the physiologic measures, individual time points were compared by post-hoc t-tests to determine if (and at what times) the change from baseline was significant. The Bonferroni correction for multiple comparisons was used; the criteria for significance at the 0.05 level was p<0.007.

rat frontal cortex = test: Laser Doppler-flowmetry (LDF) of regional cortical blood flow (CBF) in rat
Method: All procedures were carried out in accordance with NIH guidelines. Male Harlan Sprague-Dawley rats (225-300 gm) were anesthetized briefly with 1.5% halothane in oxygen for insertion of left femoral arterial and venous cannulae and placement of tracheostomy for mechanical ventilation (using a 16 gauge intravenous catheter, Inste-W, Becton Dickinson, Sandy, Utah). All wounds were infiltrated with 1% lidocaine before incision. Following surgery, the inspired halothane concentration was reduced to 0.7% and rats were paralyzed with 2 mg/kg intravenous pancuronium, followed by a continuous intravenous infusion of pancuronium at 2 mg/kg/hr. Pancuronium was dissolved in normal saline administered at 5 ml/kg/hr. Rats were mechanically ventilated (in a small animal volume controlled ventilator, Harvard Apparatus, Inc., South Natick, Mass.) with a 80/20 air/oxygen mixture, an inspiratory to expiratory ratio of 1:1, and an initial tidal volume of 3.0 ml at a rate of 40 breaths per minute. Ventilation parameters were adjusted to maintain normal arterial blood gases (pH=7.40±0.01, PaCO2=40±2, PaO2=145±10). Arterial blood samples (150 μl) withdrawn from cannula were analyzed for arterial partial pressures of oxygen, carbon dioxide, and pH (Ciba-Coming Model 1304) before administration of drugs, and at the end of each experiment before sacrifice, to ensure animal stability. Arterial blood pressure and rectal temperature were monitored throughout the experiment. […] Rats torsos were wrapped in two heating blankets (Gaymar, Orchid Park, N.Y.) circulating warm water to maintain core temperature at 37-38° C. To minimize MRI motion artifact, rats were placed into a custom plastic cradle attached to a head frame machined from delrin plastic (David Kopf Instruments, Fremont, Calif.); heads were fixed with plastic screws inserted into the ear canals and a bar inserted under the front incisors. Rat heads were shaved and covered with gel toothpaste to reduce magnetic susceptibility artifacts arising from air-tissue interfaces; ear canals and oropharynx were also filled with toothpaste. A surface coil was secured over the dorsal surface of the head before positioning the animal in the magnet center. Cocaine (RBI, Natick, Mass.), SCH-23390 (RBI, Natick, Mass.), and cocaine methiodide (NIDA, Bethesda, Md.) were dissolved in normal saline and administered in a 0.5 ml volume at a rate of 1 ml/min via the femoral vein. Sixty minutes passed before injections of cocaine were repeated.
Regional cortical blood flow was determined by LDF (Perimed, PF2B, Stockholm, Sweden) as described previously (Ayata, et al., 1996, J. Cereb. Blood Flow Metab., 16:539-541). Rats (n=8) were prepared exactly as for dynamic MR studies and positioned in a standard stereotaxic head frame. With the scalp incised and retracted, two holes (1-2 mm in diameter) were drilled through the skull 2 mm lateral to midline; one hole was 2 mm anterior to bregma overlying frontal cortex, and the other was 8 mm posterior to bregma to examine occipital cortex. The flow probe was positioned directly upon exposed dura mater in a puddle of mineral oil. […] All data were collected, stored, and analyzed using MacLab/8 data acquisition and analysis system (ADInstruments, Mountain View, Calif.). Arterial pressure was continuously monitored and the data stored; heart rate was calculated from arterial pressure pulses by the data acquisition software. […]

[2] = rat frontal cortex, cocaine 0.5 mg/kg IV
[3] = rat frontal cortex, cocaine 0.5 mg/kg IV, post infusion

COC(=O)[C@H]1[C@@H](OC(=O)c2ccccc2)C[C@@H]2CC[C@H]1N2C [cocaine]
maximum increase of cortical CBV over baseline (rat brain regions; [2]): 32%
time to peak CBV (rat brain regions; [2]): approximately 3.5 minutes
time of return of CBV to baseline (rat brain regions; [3]): ≤ 25 min
time to maximum CBV change, all cortical and subcortical regions (rat brain regions; rat, after initiation of 0.5 mg/kg cocaine infusion): 3 to 6 min
increase in CBV at peak, agranular lateral frontal neocortex (rat brain regions; rat, cocaine 0.5 mg/kg IV): ~30%
increase in CBV at peak, agranular medial frontal neocortex (rat brain regions; rat, cocaine 0.5 mg/kg IV): approximately 40%
average CBV response of four subcortical regions relative to five frontal and parietal cortical regions (rat brain regions; rat, cocaine 0.5 mg/kg IV, p<0.005): 45%
cardiac rhythm (ECG) ([1]; all subjects throughout the study): Normal sinus rhythm
time for HR, MBP and ETCO2 to return to baseline ([1]; cocaine 0.6 mg/kg IV): ≤ 2 h
heart rate (HR) ([1]; cocaine 0.6 mg/kg IV over 30 seconds, n=17, 2 minutes post-infusion): 79±16 bpm
mean blood pressure (MBP) ([1]; cocaine 0.6 mg/kg IV, 2 minutes post-infusion): 101±12 torr
mean blood pressure (MBP) ([1]; cocaine 0.6 mg/kg IV, 5 minutes): 111±15 torr
end-tidal carbon dioxide (ETCO2) ([1]; cocaine 0.6 mg/kg IV, by 10 minutes): 36±4 mm Hg
heart rate (HR) ([1]; cocaine 0.6 mg/kg IV, n=17, 5 minutes post infusion): 82±12 bpm
heart rate (HR) ([1]; cocaine 0.6 mg/kg IV, n=17, 10 minutes post infusion): 93±14 bpm
maximum increase of cortical CBF over baseline (rat frontal cortex; [2]): 41%
time to peak CBF (rat frontal cortex; [2]): approximately 3.5 minutes
time of return of CBF to baseline (rat frontal cortex; [3]): ≤ 25 min
maximum elevation of frontal cortex blood flow (rat frontal cortex; rat, LDF, after 1 mg/kg cocaine): 35±3
